The results in this text go back to EPA's ToxRefDB 2.

The LOAEL is the lowest dose or exposure tested at which an adverse effect was seen. What is called NOAEL is the highest tested level that showed no adverse finding.

The subject of data set [1] is rat. As to conditions: Subchronic oral toxicity in rodents, sprague dawley, Feed, dose end: 13 week, group: systemic, systemic / clinical chemistry / aspartate aminotransferase (ast/sgot) / aspartate aminotransferase (ast/sgot) + systemic / clinical ….
Data set [2] concerns rat. As to conditions: Combined chronic toxicity/carcinogenicity, sprague dawley, Oral, Feed, dose end: 2 year, group: systemic.
In data set [3] the test system is rat. As to conditions: Multigenerational reproductive toxicity study, sprague dawley, Oral, Feed, dose end: 2 generation.
Data set [4] deals with rat. As to conditions: Combined chronic toxicity/carcinogenicity, sprague dawley, Oral, Feed, dose end: 2 year, group: systemic. The source holds these as a separate data set.
For another data set, the system named is mouse. As to conditions: Combined chronic toxicity/carcinogenicity, cd1, Oral, Feed, dose end: 18 month, group: systemic.
Data set [5] relates to rat. As to conditions: Developmental neurotoxicity range-finding study; sprague dawley; Oral; Feed; group: cannot be grouped; developmental / offspring survival late / [other] / [other] + systemic / in life observation / body weight / litter weight.
For data set [6], the system named is dog. As to conditions: Chronic toxicity, beagle, Oral, Feed, dose end: 53 week, group: systemic.
Data set [7] deals with dog. As to conditions: Subchronic oral toxicity in nonrodent, beagle, Gavage/Intubation, dose end: 18 week, group: systemic, systemic / in life observation / body weight / body weight + systemic / in life observation / clinical signs / ataxia + systemic / in life ….
In data set [8] the test system is rat. As to conditions: Developmental neurotoxicity study; sprague dawley; Oral; Gavage/Intubation; dose end: 63 PND; group: cannot be grouped; systemic / in life observation / body weight / offspring (pup) weight.
The mark [9] stands for this setting: systemic / organ weight / liver / relative to body weight + systemic / organ weight / thyroid gland / absolute + systemic / pathology gross….
[10] abbreviates: group: offspring, systemic / in life observation / body weight / offspring (pup) weight.
[11] abbreviates: group: parental, systemic / in life observation / body weight / body weight gain + systemic / in life observation / food consumption / food consumption + ….
[12] abbreviates: group: reproductive, reproductive / offspring survival early / litter size / litter size.
The mark [13] stands for this setting: systemic / organ weight / liver / relative to body weight.
[14] abbreviates: systemic / organ weight / liver / relative to body weight + systemic / clinical chemistry / cholesterol / cholesterol.
[15] abbreviates: systemic / in life observation / clinical signs / amyloidosis + systemic / organ weight / brain / relative to brain weight + systemic / ….
[16] abbreviates: systemic / organ weight / liver / relative to brain weight + systemic / organ weight / gallbladder / relative to brain weight.
Where [17] appears, read: systemic / in life observation / clinical signs / pupillary function (dilation or constriction).
The mark [18] stands for this setting: systemic / in life observation / clinical signs / pupillary function (dilation or constriction) + systemic / clinical chemistry / protein / ….

For `CCC(CC)Nc1c([N+](=O)[O-])cc(C)c(C)c1[N+](=O)[O-]` [Pendimethalin], the LEL with rat [1] was 7.6 mg/kg/day; with rat [2] (systemic / in life observation / body weight / body weight gain + systemic / pathology gross / liver / accentuated lobular pattern) it was 25 mg/kg/day; with rat [3] (setting [10]), 215 mg/kg/day; in the data set with rat [3] (setting [11]), 173 mg/kg/day; with rat [3] (setting [12]), 215 mg/kg/day; in the data set with rat [4] (setting [14]) it was 51 mg/kg/day. Moreover, in the data set on mouse (setting [16]), the LEL stood at 12.3 mg/kg/day. Also, the lowest-observed-adverse-effect level (LOAEL) in the data set with rat [1] is 382 mg/kg/day; with rat [2] (setting [9]) it was > 250 mg/kg/day; with rat [3] (setting [10]), 215 mg/kg/day; in the data set on rat [3] (setting [11]), 173 mg/kg/day; with rat [3] (setting [12]) it was 215 mg/kg/day; in the data set on rat [4] (setting [13]) it was 51 mg/kg/day. For the same compound, the LOAEL with mouse (setting [15]) was 622 mg/kg/day. The NEL with rat [1] is < 7.6 mg/kg/day; in the data set on rat [2] (systemic / pathology microscopic / thyroid gland / adenoma + systemic / clinical chemistry / albumin / albumin + systemic / clinical …), 5 mg/kg/day; with rat [3] (setting [10]), 42 mg/kg/day; in the data set with rat [3] (setting [11]), 36 mg/kg/day; in the data set on rat [3] (setting [12]) it was 42 mg/kg/day; in the data set with rat [4] (setting [14]), < 51 mg/kg/day. The NEL with mouse (setting [16]) is < 12.3 mg/kg/day. Besides, the NOAEL with rat [1] is 39.2 mg/kg/day; with rat [2] (setting [9]), ≥ 250 mg/kg/day; in the data set on rat [3] (setting [10]), 42 mg/kg/day; in the data set on rat [3] (setting [11]), 36 mg/kg/day; in the data set on rat [3] (setting [12]) it was 42 mg/kg/day; in the data set on rat [4] (setting [13]), < 51 mg/kg/day. Moreover, in the data set with mouse (setting [15]), the no observed adverse effect level (NOAEL) was determined as 62.3 mg/kg/day.

With `CC[C@H](C)[C@H]1O[C@]2(C=C[C@@H]1C)C[C@@H]1C[C@@H](C/C=C(\C)[C@@H](O[C@H]3C[C@H](OC)[C@@H](O[C@H]4C[C@H](OC)[C@@H](O)[C@H](C)O4)[C@H](C)O3)[C@@H](C)/C=C/C=C3\CO[C@@H]4[C@H](O)C(C)=C[C@@H](C(=O)O1)[C@]34O)O2.CO[C@H]1C[C@H](O[C@H]2[C@H](C)O[C@@H](O[C@@H]3/C(C)=C/C[C@@H]4C[C@@H](C[C@]5(C=C[C@H](C)[C@@H](C(C)C)O5)O4)OC(=O)[C@@H]4C=C(C)[C@@H](O)[C@H]5OC/C(=C\C=C\[C@@H]3C)[C@]54O)C[C@@H]2OC)O[C@@H](C)[C@@H]1O` [Abamectin], the LEL in the data set with rat [5] amounted to 0.876 mg/kg/day; in the data set on dog [6] (setting [17]) it was 0.5 mg/kg/day; in the data set on dog [7] it was 0.5 mg/kg/day; in the data set on rat [8], 0.4 mg/kg/day. Also, the LOAEL in the data set on rat [5] stood at 0.876 mg/kg/day; in the data set on dog [6] (setting [17]), 0.5 mg/kg/day; in the data set on dog [7] it was 0.5 mg/kg/day; in the data set with rat [8], 0.4 mg/kg/day. Moreover, the NEL in the data set on rat [5] was found to be 0.604 mg/kg/day; in the data set on dog [6] (setting [18]), 0.25 mg/kg/day; in the data set with dog [7], 0.25 mg/kg/day; with rat [8] it was 0.2 mg/kg/day. The NOAEL in the data set on rat [5] was found to be 0.604 mg/kg/day; in the data set with dog [6] (setting [18]) it was 0.25 mg/kg/day; in the data set on dog [7], 0.25 mg/kg/day; with rat [8] it was 0.2 mg/kg/day.
